Data taken from ChEMBL document CHEMBL3044672, “N9- and N7-(Chloromethyl Phenymethyl)Chloropurine Derivatives from , '-Dichloroxylenes: Synthesis and Anticancer Activity” (2005).

What was measured:
Format in all cases: functional
[1] = system: A498; assay: Cytotoxicity against Homo sapiens (human) A498 cells after 48 hr by sulforhodamine B assay; conditions: A498, 48 h
[2] = system: ACHN; assay: Cytotoxicity against Homo sapiens (human) ACHN cells after 48 hr by sulforhodamine B assay; conditions: for CC50: read-out: LC50 (the source's name)
[3] = system: 786-0; assay: Cytotoxicity against Homo sapiens (human) 786-0 cells after 48 hr by sulforhodamine B assay; conditions: 786-0, 48 h
[4] = system: OVCAR-8; assay: Cytotoxicity against Homo sapiens (human) OVCAR8 cells after 48 hr by sulforhodamine B assay; conditions: OVCAR-8, 48 h
[5] = system: UACC-62; assay: Cytotoxicity against Homo sapiens (human) UACC62 cells after 48 hr by sulforhodamine B assay; conditions: UACC-62, 48 h
[6] = system: UACC-257; assay: Cytotoxicity against Homo sapiens (human) UACC257 cells after 48 hr by sulforhodamine B assay; conditions: UACC-257, 48 h
[7] = system: SK-MEL-28; assay: Cytotoxicity against Homo sapiens (human) SK-MEL-28 cells after 48 hr by sulforhodamine B assay; conditions: SK-MEL-28, 48 h
[8] = system: LOX IMVI; assay: Cytotoxicity against Homo sapiens (human) LOXIMVI cells after 48 hr by sulforhodamine B assay
[9] = system: M14; assay: Cytotoxicity against Homo sapiens (human) M14 cells after 48 hr by sulforhodamine B assay; conditions: M14, 48 h
[10] = system: U-251; assay: Cytotoxicity against Homo sapiens (human) U251 cells after 48 hr by sulforhodamine B assay; conditions: U-251, 48 h
[11] = system: SNB-19; assay: Cytotoxicity against Homo sapiens (human) SNB19 cells after 48 hr by sulforhodamine B assay; conditions: SNB-19, 48 h
[12] = system: SF-539; assay: Cytotoxicity against Homo sapiens (human) SF539 cells after 48 hr by sulforhodamine B assay; conditions: SF-539, 48 h
[13] = system: BT-549; assay: Cytotoxicity against Homo sapiens (human) BT549 cells after 48 hr by sulforhodamine B assay; conditions: BT-549, 48 h
[14] = Cytotoxicity against Homo sapiens (human) NCI-ADR-RES cells after 48 hr by sulforhodamine B assay
[15] = system: UO-31; assay: Cytotoxicity against Homo sapiens (human) UO31 cells after 48 hr by sulforhodamine B assay; conditions: UO-31, 48 h
[16] = system: SN12C; assay: Cytotoxicity against Homo sapiens (human) SN12C cells after 48 hr by sulforhodamine B assay
[17] = system: CAKI-1; assay: Cytotoxicity against Homo sapiens (human) Caki1 cells after 48 hr by sulforhodamine B assay; conditions: CAKI-1, 48 h; for CC50: read-out: LC50 (the source's name)
[18] = system: SF-268; assay: Cytotoxicity against Homo sapiens (human) SF268 cells after 48 hr by sulforhodamine B assay; conditions: SF-268, 48 h; for CC50: read-out: LC50 (the source's name)
[19] = system: HCT-15; assay: Cytotoxicity against Homo sapiens (human) HCT15 cells after 48 hr by sulforhodamine B assay; conditions: HCT-15, 48 h; for CC50: read-out: LC50 (the source's name)
[20] = system: NCI-H522; assay: Cytotoxicity against Homo sapiens (human) NCI-H522 cells after 48 hr by sulforhodamine B assay; conditions: NCI-H522, 48 h; for CC50: read-out: LC50 (the source's name)
[21] = system: NCI-H23; assay: Cytotoxicity against Homo sapiens (human) NCI-H23 cells after 48 hr by sulforhodamine B assay; conditions: NCI-H23, 48 h; for CC50: read-out: LC50 (the source's name)
[22] = system: NCI-H226; assay: Cytotoxicity against Homo sapiens (human) NCI-H226 cells after 48 hr by sulforhodamine B assay; conditions: NCI-H226, 48 h; for CC50: read-out: LC50 (the source's name)
[23] = system: HOP-92; assay: Cytotoxicity against Homo sapiens (human) HOP92 cells after 48 hr by sulforhodamine B assay; conditions: HOP-92, 48 h; for CC50: read-out: LC50 (the source's name)
[24] = system: A549; assay: Cytotoxicity against Homo sapiens (human) A549 cells after 48 hr by sulforhodamine B assay; conditions: A549, 48 h; for CC50: read-out: LC50 (the source's name)
[25] = system: K562; assay: Cytotoxicity against Homo sapiens (human) K562 cells after 48 hr by sulforhodamine B assay; conditions: K562, 48 h; for CC50: read-out: LC50 (the source's name)
[26] = system: CCRF-CEM; assay: Cytotoxicity against Homo sapiens (human) CCRF-CEM cells after 48 hr by sulforhodamine B assay; conditions: for CC50: read-out: LC50 (the source's name)
[27] = system: MCF7; assay: Cytotoxicity against Homo sapiens (human) MCF7 cells assessed as cell growth at 10^-4 M after 48 hr by Alamar blue assay; conditions: MCF7, 48 h, read-out: Activity
[28] = system: NCI-H460; assay: Cytotoxicity against Homo sapiens (human) NCI-H460 cells assessed as cell growth at 10^-4 M after 48 hr by Alamar blue assay; conditions: NCI-H460, 48 h, read-out: Activity

With `ClCc1cccc(Cn2cnc3c(Cl)nc(Cl)nc32)c1` the GI50 [1] was 2.39 µM, the LC50 (lethal concentration, 50% cell kill) [1] was 27.5 µM and the TGI [1] was 6.6 µM. The GI50 [2] was 1.9 µM, the TGI [2] was 3.71 µM and the CC50 [2] was 7.24 µM. For the same compound, the GI50 [3] was 12.3 µM, the LC50 [3] was 57.5 µM and the TGI [3] was 26.9 µM. It also gave a GI50 [4] of 1.82 µM, an LC50 (concentration killing 50% of cells) [4] of 67.6 µM and a TGI [4] of 3.54 µM. It also gave a GI50 [5] of 1.86 µM, an LC50 (concentration causing 50% net cell kill) [5] of 6.45 µM and a TGI [5] of 3.46 µM. It also gave a GI50 [6] of 1.86 µM, an LC50 (concentration killing 50% of cells) [6] of 6.45 µM and a TGI [6] of 3.46 µM. For the same compound, the GI50 [7] was 2.34 µM, the LC50 (concentration killing 50% of cells) [7] was > 100 µM and the TGI [7] was 5.37 µM. For the same compound, the GI50 [8] was 1.69 µM, the LC50 [8] was 6.91 µM and the TGI [8] was 3.38 µM. For the same compound, the GI50 [9] was 1.77 µM, the LC50 [9] was 6.45 µM and the TGI [9] was 3.38 µM. It also gave a GI50 [10] of 1.69 µM, an LC50 (concentration killing 50% of cells) [10] of 5.62 µM and a TGI [10] of 3.09 µM. For the same compound, the GI50 [11] was 1.95 µM, the LC50 [11] was 8.92 µM and the TGI [11] was 4.16 µM. It also gave a GI50 [12] of 2.18 µM, an LC50 (concentration killing 50% of cells) [12] of 40.7 µM and a TGI [12] of 14.1 µM. It also gave a GI50 [13] of 1.69 µM, an LC50 (50% lethal concentration) [13] of 6.16 µM and a TGI [13] of 3.23 µM. For the same compound, the GI50 [14] was 2.39 µM, the LC50 (concentration killing 50% of cells) [14] was > 100 µM and the TGI [14] was 5.24 µM. It also gave a GI50 [15] of 1.58 µM, an LC50 (concentration causing 50% net cell kill) [15] of 5.88 µM and a TGI [15] of 3.09 µM. For the same compound, the GI50 [16] was 2.13 µM, the LC50 (50% lethal concentration) [16] was 11.8 µM and the TGI [16] was 4.67 µM. The GI50 [17] was 2.23 µM, the TGI [17] was 5.88 µM and the CC50 [17] was 22.9 µM. For the same compound, the GI50 [18] was 2.51 µM, the TGI [18] was 6.6 µM and the CC50 [18] was 70.8 µM. For the same compound, the GI50 [19] was 2.39 µM, the TGI [19] was 6.91 µM and the CC50 [19] was > 100 µM. It also gave a GI50 [20] of 2.69 µM, a TGI [20] of 5.37 µM and a CC50 [20] of 17 µM. The GI50 [21] was 2.13 µM, the TGI [21] was 5.12 µM and the CC50 [21] was 22.4 µM. It also gave a GI50 [22] of 3.23 µM, a TGI [22] of 10 µM and a CC50 [22] of 40.7 µM. It also gave a GI50 [23] of 1.82 µM, a TGI [23] of 3.63 µM and a CC50 [23] of 7.08 µM. It also gave a GI50 [24] of 3.09 µM, a TGI [24] of 10 µM and a CC50 [24] of 52.5 µM. For the same compound, the GI50 [25] was 1.58 µM, the TGI [25] was > 100 µM and the CC50 [25] was > 100 µM. The GI50 [26] was 2.69 µM, the TGI [26] was > 100 µM and the CC50 [26] was > 100 µM. For the same compound, the growth at 100 µM [27] was 0% and the growth at 100 µM [28] was 0%.
Compound `ClCc1cccc(Cn2cnc3ncnc(Cl)c32)c1` has a GI50 [1] of 18.2 µM, an LC50 (lethal concentration, 50% cell kill) [1] of 6.6 µM and a TGI [1] of 36.3 µM. The GI50 [2] was 1.86 µM, the TGI [2] was 3.54 µM and the CC50 [2] was 7.76 µM. For the same compound, the GI50 [3] was 2.04 µM, the LC50 [3] was 70.8 µM and the TGI [3] was 4.07 µM. For the same compound, the GI50 [4] was 3.09 µM, the LC50 (concentration killing 50% of cells) [4] was 60.2 µM and the TGI [4] was 14.8 µM. It also gave a GI50 [5] of 2.18 µM, an LC50 (concentration causing 50% net cell kill) [5] of 38.9 µM and a TGI [5] of 5.37 µM. For the same compound, the GI50 [6] was 1.94 µM, the LC50 (concentration killing 50% of cells) [6] was 18.6 µM and the TGI [6] was 5.49 µM. For the same compound, the GI50 [7] was 1.81 µM, the LC50 (concentration killing 50% of cells) [7] was 42.6 µM and the TGI [7] was 3.54 µM. For the same compound, the GI50 [8] was 3.09 µM, the LC50 [8] was 43.6 µM and the TGI [8] was 14.1 µM. The GI50 [9] was 3.09 µM, the LC50 [9] was 67.6 µM and the TGI [9] was 14.5 µM. The GI50 [10] was 1.94 µM, the LC50 (concentration killing 50% of cells) [10] was > 100 µM and the TGI [10] was 3.98 µM. For the same compound, the LC50 [11] was 6.76 µM, the GI50 [12] was 19.9 µM and the TGI [12] was 36.3 µM. The GI50 [13] was 13.2 µM, the LC50 (50% lethal concentration) [13] was 63.1 µM and the TGI [13] was 28.8 µM. For the same compound, the GI50 [14] was 2.75 µM, the LC50 (concentration killing 50% of cells) [14] was 81 µM and the TGI [14] was 9.77 µM. It also gave a GI50 [15] of 1.54 µM, an LC50 (concentration causing 50% net cell kill) [15] of 26.9 µM and a TGI [15] of 3.09 µM. It also gave a GI50 [16] of 7.07 µM, an LC50 (50% lethal concentration) [16] of 6.16 µM and a TGI [16] of 20.4 µM. The GI50 [17] was 2.13 µM, the TGI [17] was 4.07 µM and the CC50 [17] was > 100 µM. For the same compound, the GI50 [18] was 1.65 µM, the TGI [18] was 3.46 µM and the CC50 [18] was 47.9 µM. For the same compound, the GI50 [19] was 1.94 µM, the TGI [19] was 4.36 µM and the CC50 [19] was > 100 µM. The GI50 [20] was 6.16 µM, the TGI [20] was 24 µM and the CC50 [20] was > 100 µM. For the same compound, the GI50 [21] was 1.23 µM, the TGI [21] was 3.38 µM and the CC50 [21] was 5.88 µM. For the same compound, the GI50 [22] was 3.16 µM, the TGI [22] was 8.7 µM and the CC50 [22] was 9.33 µM. The CC50 [23] was 52.5 µM, the GI50 [24] was 17.4 µM and the TGI [24] was 39.8 µM. The CC50 [24] was 91.2 µM, the GI50 [25] was 16.6 µM and the TGI [25] was 47.9 µM. For the same compound, the CC50 [25] was > 100 µM, the GI50 [26] was 6.91 µM and the TGI [26] was 22.4 µM. It also gave a CC50 [26] of 60.2 µM, a growth at 100 µM [27] of 1% and a growth at 100 µM [28] of 0%.
